Test results from patent US20260248820A1, “USES OF HYDROGENATED CANNABIDIOL (H4CBD) AND ADVANCED METABOLIC SYNDROME” (The Regents of the University of California, priority 2022, published 2026).
Entries after “also recorded” stand apart in the source; their conditions may differ.

Tests used:
[1] = system: Otsuka Long-Evans Tokushima Fatty (OLETF) rat; assay: Liver triglyceride content; assay type: in vivo; settings: p<0.05
[2] = system: Otsuka Long-Evans Tokushima Fatty (OLETF) rat; assay: Observation of treated animals during dosing window; assay type: in vivo; settings: all treated animals, regardless of dose frequency relaxation
[3] = system: proteins involved in insulin signaling (soleus); assay: Western blot of soleus insulin signaling proteins; assay type: in vivo, rat
From the text: (§1) Western Blot—Soleus was used to measure proteins involved in insulin signaling. Densitometry values were quantified using ImageJ software (NIH) and normalized by correcting for densitometry values of representative protein bands below 37 kDa stained with Ponceau S. Results are reported as expression (%) compared to LETO.

[4] = system: Otsuka Long-Evans Tokushima Fatty (OLETF) rat; assay: Oral Glucose Tolerance Test (OGTT); assay type: in vivo
Description: (§2) Male lean Long Evan's Tokushima Otsuka (LETO) rats and obese Otsuka Long Evans Tokushima Fatty (OLETF) rats (Japan SLC Inc., Hamamatsu, Japan), both 14 weeks of age were assigned to the following groups (n=8/group): (1) vehicle-dosed LETO (LETO), (2) vehicle-dosed OLETF (OLETF), and (3) H4CBD-treated (200 mg/kg/day×4 weeks) OLETF (H4CBD). Rats were maintained in a specific pathogen-free, climate-controlled facility on a 12-hour light: dark cycle (07:00-19:00 and 19:00-07:00, respectively). All animals had free access to water and were fed rat chow (Teklad Global; fat 9.0%; carbohydrate 44.9%; protein 19.0%) ad libitum. Treatment intervention was initiated at 41 weeks of age. Phenotypic data (i.e. body mass, food intake) was collected daily for all animals.
(§3) Purified H4CBD (>99%) was suspended in food grade sesame oil and administered by oral gavage at a dose of 200 mg/kg.
Oral Glucose Tolerance Test (OGTT)—At approximately 45 weeks of age and following an overnight fast, oGTTs were performed as previously described. The positive incremental areas under the curve for glucose (AUCglucose) and insulin (AUCinsulin) were calculated by the trapezoidal method. Insulin resistance index (IRI) was calculated by AUCglucosex AUCinsulin/100, as previously described.

[5] = system: Otsuka Long-Evans Tokushima Fatty (OLETF) rat; assay: Morphometrical measurements (body mass, abdominal fat, food and water intake, activity) in advanced MetS rats; assay type: in vivo
From the text: Animals—The Otsuka Long-Evans Tokushima Fatty (OLETF) rat is a monogenic model of diet-induced obesity accelerated by a mutation in the CCK receptor. […] At >40 weeks of age, OLETF rats suffer from severe metabolic dysfunction and therefore serve as a model of aged, severe MetS.
as §2, §3
Tissue Collection—After the 4-week study and 3 days following the OGTT, animals were fasted overnight and tissues were collected the following morning.
as §2, with “Animals—Male” for “Male”, “facility at the University of California, Merced” for “facility”, “age.” for “age. Phenotypic data (i.e. body mass, food intake) was collected daily for all animals.”
(§4) Body Mass (BM), Water, and Food Intake—BM was measured daily to calculate the appropriate drug and vehicle dose. Water, urine and food were measured once every 24 hours throughout the study.
Telemeter Implantation—At 16 weeks, OLETF rats (n=5) were implanted with DSI telemeters (HD-S10) in the abdominal cavity to measure systolic blood pressure. […] Activity was measured every hour for 15 minutes for the duration of the study. Data were analyzed using A.R.T. software (DSI, St. Paul, MN).
Drug Preparation and Administration—Purified H4CBD (>99%) was suspended in sesame oil and administered by oral gavage at a dose of 200 mg/kg.
Tissue Collection—After the 4-week study period, animals were fasted overnight, and tissues were collected at sacrifice the following morning. BM was recorded before animals were decapitated and trunk blood was collected.

[6] = system: Otsuka Long-Evans Tokushima Fatty (OLETF) rat; assay: Urinalysis (urine volume, total protein, creatinine, 3-methylhistidine); assay type: in vivo
Description: as §4
Urinalysis—Urine was collected and thawed on ice to measure 3-methylhistidine (3MH; Abbexa; 257295) and creatinine (Invitrogen; EIACUN). Excretion was calculated for both by multiplying the 24-hr urine volume by the measured concentration (U×V=V*[x]), where x=creatinine or 3MH.

[7] = system: proteins involved in fatty acid uptake, metabolism and storage (liver); assay: Western blot of liver proteins involved in fatty acid uptake, metabolism and storage; assay type: in vivo, rat
From the text: as §1, with “Blot—Liver” for “Blot—Soleus”, “fatty acid uptake, metabolism and storage.” for “insulin signaling.”

[8] = OLETF rats, 200 mg/kg oral, 4 weeks, p<0.05
[9] = average between day 10 and day 30
[10] = by day 13 through the end of the study

For `CCCCCc1cc(O)c(C2CC(C)CCC2C(C)C)c(O)c1` (stereo not drawn) [H4CBD, 2-(2-isopropyl-5-methylcyclohexyl)-5-pentylbenzene-1,3-diol], the “Reduction of liver triglyceride content” value [1] was 28%, the Stool observation [2] was “soft stool at multiple points of the dosing window” and the “Translocated (membrane) GLUT4” value ([3]; membrane fraction of skeletal muscle) was “no changes”. The AMPK expression ([3]; soleus) was “No changes were detected”, the “Ratio of membrane to cytosolic GLUT4” value ([3]; soleus) was “unchanged among the groups” and the “Reduction of PI3K expression compared to OLETF” value ([3]; soleus) was 47%. For the same molecule, the pAMPK expression ([3]; soleus) was “No changes were detected”, the pAMPK/AMPK expression ([3]; soleus) was “No changes were detected” and the pIR/IR ([3]; soleus) was “not changed”. The “Phosphorylation of the insulin receptor (pIR)” value ([3]; soleus protein expression) was “No changes were detected”, the “Reduction of Akt expression compared to OLETF” value ([3]; soleus, cytosolic, p<0.05) was 32% and the “Reduction of pAkt expression compared to OLETF” value ([3]; soleus, cytosolic, p<0.05) was 58%. For the same molecule, the “Reduction of pAkt:Akt ratio compared to OLETF” value ([3]; soleus, p<0.01) was 35%, the “Increase of native insulin receptor (IR) expression over OLETF” value ([3]; soleus, p<0.05) was 54% and the “Cytosolic GLUT4 higher than OLETF” value ([3]; soleus, tended, p=0.06) was 58%. The “Glucose response curve to OGTT” value ([4]; % baseline, p<0.01 OLETF vs. H4CBD) was “lowest”, the “Reduction of insulin resistance index (IRI)” value ([4]; IRI = AUCglucose x AUCinsulin/100, p<0.05 OLETF vs. H4CBD) was 23% and the “Time of blood glucose peak after glucose bolus” value ([4]; OGTT at about 45 weeks, overnight fast, treated and non-treated OLETF) was 60 min. The “Reduction of overall AUCglucose from OLETF” value ([4]; OGTT, p<0.001) was 29%, the “Plasma insulin response to OGTT” value ([4]; response abolished in OLETF) was “not rescued” and the “Activity score relative to OLETF control” value ([5]; DSI HD-S10 telemeter, H4CBD n=3, OLETF n=2, p=0.0985, not significant) was “nearly doubled”. The “Body mass (g)” value ([5]; H4CBD-treated OLETF rats, 200 mg/kg oral gavage, 4 weeks, mean ± SEM, n = 8) was 516 ± 21^^# g, the “Final, absolute food intake” value ([5]; H4CBD-treated OLETF rats, 200 mg/kg oral, 4 weeks, average of 3 days, mean ± SEM) was 36 ± 2 g and the “Relative total fat (g/100 g BM)” value ([5]; H4CBD-treated OLETF rats, 200 mg/kg oral, 4 weeks, epi.+retro., mean ± SEM) was 7.8 ± 1.1 g/100 g BM. The “Relative epi. fat (g/100 g BM)” value ([5]; H4CBD-treated OLETF rats, 200 mg/kg oral, 4 weeks, epidydimal, mean ± SEM) was 1.2 ± 0.1^^# g/100 g BM, the “Relative final food intake (g/100 g BM)” value ([5]; H4CBD-treated OLETF rats, 200 mg/kg oral, 4 weeks, mean ± SEM) was 6.7 ± 0.4 g/100 g BM and the “Relative retro. fat (g/100 g BM)” value ([5]; H4CBD-treated OLETF rats, 200 mg/kg oral, 4 weeks, retroperitoneal, mean ± SEM) was 6.6 ± 0.9 g/100 g BM. For the same molecule, the “Initial, absolute food inake” value ([5]; H4CBD-treated OLETF rats, average of 3 days, mean ± SEM) was 34 ± 2 g, the “Reduction of relative combined (total) adipose compared to OLETF” value ([5]; OLETF rats, 200 mg/kg oral, 4 weeks) was 25% and the “Change in food consumption compared to OLETF” value ([5]; OLETF rats, 200 mg/kg oral, 4 weeks (Table 1)) was “not associated with a change in food consumption”. For the same molecule, the “Effect on body mass (BM)” value ([5]; OLETF rats, 200 mg/kg oral, 4 weeks, compared with vehicle LETO, 200 mg/kg) was “reduced BM in OLETF to LETO levels within the first week; also recorded: reduced BM to vehicle-treated LETO levels”, the “Reduction of relative epidydimal fat compared to OLETF control” value [5, 8] was 35% and the “Reduction of relative retroperitoneal fat compared to OLETF control” value [5, 8] was 24%. For the same molecule, the “BM of vehicle-treated OLETF higher than H4CBD-treated OLETF” value ([5]; OLETF rats, 200 mg/kg oral, after first week (day 10-30), p<0.05) was 15%, the “Increased relative food consumption compared to OLETF control” value [5, 9] was 24% and the “Increased relative food intake consumption compared to LETO” value [5, 9] was 74%. For the same molecule, the “Water intake higher than LETO” value [5, 10] was > 600%, the “Water intake higher than OLETF control” value [5, 10] was 90% and the “Urine excretion compared to vehicle control, first week” value ([6]; 24-hour urine) was “reduced”. For the same molecule, the “Urine excretion volume compared to OLETF control, remainder of study” value ([6]; 24-hour urine, persisted through the remainder of the study) was “increased above OLETF control by Day 11”, the “Increase of 3MH excretion pre- vs. post-treatment” value ([6]; Day 0 vs Day 28) was 9% and the “3MH excretion less than OLETF control” value ([6]; after 4 weeks) was 17%. For the same molecule, the “Reduction of creatinine excretion compared to OLETF control” value ([6]; after 4 weeks) was 42%, the “Increase of creatinine excretion within H4CBD-treated group” value ([6]; after 4 weeks of treatment vs Day 0, non-significant) was 10% and the “3MH/Cr higher than OLETF control” value ([6]; post-treatment (Day 28), p=0.07) was 77%. For the same molecule, the “Reduction of proteinuria compared to OLETF control” value ([6]; total urinary protein excretion after 4 weeks) was 25%, the “Increase of 3MH/Cr after 4 weeks” value ([6]; within H4CBD treated OLETF, muscle wasting index) was 4% and the “Downstream signaling proteins GPAM, DGAT1, CPTIA, ACOX1, ApoB and PRDX6” value ([7]; data not shown) was “comparable between groups”. The FATP5 expression ([7]; increased 109% in OLETF vs LETO) was “not effected”, the “Increase of FATP2 expression” value ([7]; p<0.05) was 60% and the “Rescue (increase) of CD36 expression” value ([7]; p<0.05) was 48%.
